The source of these data is US5599839A, “Antiviral composition” (The United States of America as represented by the …, priority 1995, dated 1997).

Read-outs that look alike come from different tables or passages of the source.

In one data set the target is protein kinase C. Description: [3H]PDBu binding to partially purified protein kinase C. Particulars: read-out: Ki, competition of [3H]PDBu binding to protein kinase C; for comparison; mean±range, 2 experiments. The procedure: (§1) Incubation was for 30 min at 37° C., after which the cells were chilled, an aliquot removed to determine total counts, and bound counts determined by filtration.

Data set [1] concerns C3H10T1/2 cells. The experiment in a line: Release of [3H]arachidonic acid metabolites in C3H10T1/2 cells. In kind it is cell-based. Particulars: Mus musculus, C3H 10T1/2, read-out: Half-maximally effective concentration, release of arachidonic acid metabolites. From the text:
(§2) Well-characterized biological responses to the phorbol esters include inhibition of binding of epidermal growth factor and release of arachidonic acid metabolites [Dell'Aquila et al.: Cancer Res. 48:3702-3708, (1988)].

In data set [2] the test system is HIV-1 (RF variant) in CEM-SS cells. The experiment in a line: XTT-tetrazolium anti-HIV assay (HIV-1-infected CEM-SS cells). The class given is cell-based. To be noted: 50 nM. The source says: (§3) Cancer Inst. […] Cancer Inst. 81:1254-1258, (1989)] but with several modifications.
(§4) Philadelphia: Lippincott, 1988, pp. 305-317; Weislow et al.: J. Nat. Cancer Inst. […] Cancer Inst. 81:1254-1258, (1989)].
A general note: Tetrazolium dyes change colour on reduction, which living cells bring about.

In data set [3] the test system is CEM-SS cells. The class given is cell-based, human.
Description: as §3, §4

Data set [4] relates to HIV-1 (RF variant) in CEM-SS cells. Description: microbe, parasite or virus in culture. To be noted: Human immunodeficiency virus 1, CEM-SS, 144 h, read-out: Concentration at which syncytium formation (infectious virions) is strikingly inhibited (as low as). The method, then: (§5) The XTT-tetrazolium anti-HIV assay was performed on crude extracts, chromatographic fractions and pure compounds as previously described [Weislow et al.: J. Nat. Cancer Inst. 81:577-586, (1989) and Gustafson et al.: J. Nat. Cancer Inst. 81:1254-1258, (1989)] but with several modifications. The human T-lymphoblastic cell line CEM-SS [Nara et al.: AIDS Res. Hum. […] Concentrated pellets of CEM-SS cells were incubated with the free virus for 1 hour at 37° C. The cells were then diluted and inoculated into round-bottomed 96-well microtiter plates (Corning) at a density of 5000 cells/well. Test compounds and the appropriate controls were then added to the wells, and the plates were incubated for 6 days. At the end of the incubation period cell growth parameters and HIV-1 activities were determined.
(§6) Aliquots of supernatant fluid from the test wells of the tetrazolium assay were removed prior to the time of XTT addition for quantitation of residual infectious virus using the syncytium assay described by Nara et al. [Nara et al.: AIDS Res. Hum. Retroviruses 3:283:302, (1987)].

For a further data set, the system named is HIV-1 p24. Description: microbe, parasite or virus in culture. To be noted: Human immunodeficiency virus 1, 144 h, read-out: Concentration at which p24 viral antigen production is strikingly inhibited (as low as). The method, then: as §5, §6
A further data set can be described thus: in vitro. To be noted: human, cem-ss cells. The procedure: (§7) Trypan blue dye exclusion was employed for secondary evaluation of drug toxicity and antiviral protection over time. A 50 μl aliquot of cells was removed from each test well and mixed with 100 μl of 0.4% trypan blue. The percentage of viable cells was determined microscopically by direct hemocytometer counts.

Data set [5] has as its system CEM-SS cells. Description: in vitro. To be noted: HIV-1-infected, prostratin-treated (FIG. 4). The method, then:
as §7

Data set [6] deals with CEM-SS cells. The class given is binding, human. Particulars: for Ki: read-out: Ki, inhibition of [3H]PDBu binding to CEM cells. The method, then: as §1
Binding affinities of phorbol esters in cells are typically lower than those obtained with reconstituted protein kinase C [Blumberg et al.: in Mechanism of Tumor Promotion, Vol. 3. Tumor Promotion and Cocarcinogenesis in vitro, (Slaga T. J., ed.) Boca Raton, Fla.: CRC Press, 1984, pp. 143-184], presumably reflecting the role of cellular calcium and phospholipid composition on binding [Konig et al.: J. Cell. Biochem. 7:255-265, (1985)]. […] The usual binding protocol were cells omits serum, because of reportedly variable effects of serum on binding [Blumberg et al.: in Mechanism of Tumor Promotion, Vol. 3. Tumor Promotion and Cocarcinogenesis in vitro, (Slaga T. J., ed.) Boca Raton, Fla.: CRC Press, 1984, pp. 143-184].

The test system of data set [7] is C3H10T1/2 cells. The experiment in a line: Inhibition of 125I-epidermal growth factor binding in C3H10T1/2 cells. In kind it is cell-based.
Description: as §2

For data set [8] the following is noted: cited from earlier work.

As usually defined, the Ki is a measure of affinity in units of concentration, obtained from inhibition or displacement. With `CC1=C[C@H]2[C@@]3(O)[C@H](C)C[C@]4(OC(=O)C(C)C)[C@H]([C@@H]3C=C(CO)C[C@]2(O)C1=O)C4(C)C` [12-deoxyphorbol 13-isobutyrate], the Ki at protein kinase C is 2.1 ± 0.1 nM.
For the compound `CCCC(=O)O[C@@H]1[C@@H](C)[C@@]2(O)[C@@H](C=C(CO)C[C@]3(O)C(=O)C(C)=C[C@@H]23)[C@@H]2C(C)(C)[C@]12OC(=O)CCC` [PDBu, phorbol 12,13-dibutyrate, reference compound], the EC50 in the data set with C3H10T1/2 cells [1] was 24 nM.
Consider `CCCCCCCCCCCCCC(=O)O[C@@H]1[C@@H](C)[C@@]2(O)[C@@H](C=C(CO)C[C@]3(O)C(=O)C(C)=C[C@@H]23)[C@@H]2C(C)(C)[C@]12OC(C)=O` [PMA, phorbol 12-myristate 13-acetate, reference compound], for which the “Protection against HIV-1” value in data set [2] is “protective against HIV-1”. Besides, the Cytostatic effect entry in the data set with CEM-SS cells [3] (50 nM) is “cytostatic”.
Broadly, the viability is the share of living cells, or the viability signal relative to a control. Read a high viability as less harm to the cells. On to `CC(=O)O[C@@]12C[C@@H](C)[C@@]3(O)[C@@H](C=C(CO)C[C@]4(O)C(=O)C(C)=C[C@@H]34)[C@@H]1C2(C)C` [prostratin], for which the “Growth-inhibitory (cytostatic) effect on uninfected control cultures” value with CEM-SS cells [3] (1.0-200 μg/ml, uninfected CEM-SS, 6 days) was “marked growth-inhibitory, or cytostatic, effect”. In addition, the minimal effective concentration (in data set [4]; with HIV-1 p24) was ≤ 1 µg/mL in each case. Moreover, the viability in “in vitro” is > 90%. For the same compound, the “Cell viability, infected cultures” value in the data set on CEM-SS cells [5] is reported as “greater than 90%”. The Ki with CEM-SS cells [6] (10% fetal calf serum, one experiment) turned out to be 190 nM; in the data set with CEM-SS cells [6] (without serum, 30 min at 37° C, mean±range, 2 experiments), 210 ± 30 nM. In addition, the “Inhibition of binding of epidermal growth factor” value with C3H10T1/2 cells [7] is “induces both of these responses”. Further, the EC50 in the data set with C3H10T1/2 cells [1] worked out at 1100 nM. Further, the Tumor promoting activity result in [8] (general statement, no test described) is reported as “substantially lacks tumor promoting activity”; in [8] (reported, Zayed et al. 1977) it was “not a tumor promoter”.
With “[^3 H]phorbol 12,13-dibutyrate [[^3 H]PDBu, reference compound]”, in the data set with CEM-SS cells [6] (mean±range, 2 experiments), the “Bmax in CEM-SS cells” value is on record as 1.2±0.1 pmol/mg protein. Further, the Kd in the data set with CEM-SS cells [6] (mean±range, 2 experiments, read-out: Binding affinity in CEM-SS cells) was determined as 4.9 ± 0.8 nM.
